According to US20160046618A1, “Cyclopropyl Fused Thiazin-2-Amine Compounds as Beta-Secretase Inhibitors and Methods of Use” (AMGEN INC., priority 2014, published 2016):
Like-named read-outs stand apart in the source and are kept apart here.

Tests used:
human recombinant BACE1 = human recombinant BACE1 (Homo sapiens (Human), UniProt P56817); experiment: In vitro enzymatic BACE1 FRET assay; format: biochemical; details: read-out: IC50 IP (μM) BACE1 enzyme
Method in brief: (§1)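 Read-out: dequenched fluorescence, excitation 488 nm, emission 590 nm, after proteolysis of a quenched peptide spanning the BACE cleavage site. Substrate at 50 nM, 1 h incubation, termination by Tris addition to neutral pH.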

[1] = system: Aβ40 in conditioned medium of cells stably expressing Amyloid Precursor Protein (APP); experiment: In vitro BACE-1 cell-based assay (Aβ40 sandwich ELISA); details: read-out: IC50 IP (μM) BACE1 cell
Method in brief: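 Read-out: time-resolved fluorescence (Streptavidin-Europium) of Aβ40 captured by pAb40 and detected with biotinylated 6E10 from supernatants of APP-stable cells. Cells were exposed to compound for 24 h, 10-point dose response, top dose 100 μM or 10 μM, 0.1% DMSO. IC50 fitted to percent of control.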

Recombinant Cat D = Recombinant Cat D (Homo sapiens (Human), UniProt P07339); experiment: In vitro enzymatic Cathepsin D (Cat D) FRET assay; format: biochemical; details: read-out: IC50 IP (μM) CatD
Recombinant Cat D, sequence (P07339 65-412): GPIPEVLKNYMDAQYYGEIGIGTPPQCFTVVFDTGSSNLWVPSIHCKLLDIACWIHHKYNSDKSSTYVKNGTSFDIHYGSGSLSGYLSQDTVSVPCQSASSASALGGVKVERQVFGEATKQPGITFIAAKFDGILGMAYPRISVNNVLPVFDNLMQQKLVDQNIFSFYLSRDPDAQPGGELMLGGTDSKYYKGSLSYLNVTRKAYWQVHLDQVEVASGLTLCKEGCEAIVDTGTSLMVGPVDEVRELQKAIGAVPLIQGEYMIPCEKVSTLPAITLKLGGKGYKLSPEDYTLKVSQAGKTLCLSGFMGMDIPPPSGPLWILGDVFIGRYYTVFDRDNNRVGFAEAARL
Method in brief: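 CHO-expressed enzyme; buffer 0.05 M citrate pH 3.5, 5 mM CHAPS, 10% DMSO final. Start with FRET substrate 20 nM, 1 h incubation, Tris stop (pH to neutral), fluorescence ex 500 nm/em 580 nm.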

Aβ 40 in rat CSF = experiment: In vivo inhibition of beta-secretase: Aβ40 reduction in rat CSF; details: after 4 h
Source text: (§2) In Vivo Inhibition of Beta-Secretase
Several animal models, including mouse, rat, dog, and monkey, may be used to screen for inhibition of beta-secretase activity in vivo following administration of a test compound sample. Animals used in this invention can be wild type, transgenic, or gene knockout animals. For example, the Tg2576 mouse model, prepared and conducted as described in Hsiao et al., 1996, Science 274, 99-102, and other non-transgenic or gene knockout animals are useful to analyze in vivo inhibition of Amyloid beta peptide (Abeta) production in the presence of inhibitory test compounds. Generally, 2 to 18 month old Tg2576 mice, gene knockout mice or non-transgenic animals are administered test compounds formulated in vehicles, such as cyclodextran, phosphate buffers, hydroxypropyl methylcellulose or other suitable vehicles. One to twenty-four hours following the administration of compound, animals are sacrificed, and brains as well as cerebrospinal fluid (CSF) and plasma are removed for analysis of A-beta levels and drug or test compound concentrations (Dovey et al., 2001, Journal of Neurochemistry, 76,173-181) Beginning at time 0, animals are administered by oral gavage, or other means of delivery such as intravenous injection, an inhibitory test compound of up to 100 mg/kg in a standard, conventional formulation, such as 2% hydroxypropyl methylcellulose, 1% Tween80. A separate group of animals receive 2% hydroxypropyl methylcellulose, 1% Tween80 alone, containing no test compound, and serve as a vehicle-control group. At the end of the test period, animals are sacrificed and brain tissues, plasma or cerebrospinal fluid are collected. […] Homogenates are centrifuged at 355,000 g, 4° C. for 30 minutes. CSF or brain supernatants are then analyzed for the presence of A-beta peptide by specific sandwich ELISA assays based on ECL (Electrochemiluminescence) technology. For example, rat Abeta40 is measured using biotinylated-4G8 (Signet) as a capture antibody and Fab40 (an in-house antibody specific to the C-terminal of Abeta40) as a detection antibody. For example, 4 hours after administration of 30 mg/kg oral dose of the test compound in 2% hydroxypropyl methylcellulose, 1% Tween80 (pH2.2) to 200 g male Sprague Dawley rats, amyloid beta peptide levels are measured for reduction by X % and Y % in cerebrospinal fluid and brain, respectively, when compared to the levels measured in the vehicle-treated or control mice.
(§3) Actual vehicles used: Oral: 2% HPMC, 1% Tween80, pH 2.2
The compounds of the invention may be shown to reduce the formation and/or deposition of amyloid beta peptide in the cerebrospinal fluid (CSF) as well as in the brain of a mouse or rat at either 3 mpk, 10 mpk or 30 mpk (mpk=mg compound per kg weight of the animal) dosing concentrations after 4 h.

Aβ 40 in rat brain = experiment: In vivo inhibition of beta-secretase: Aβ40 reduction in rat brain; details: after 4 h
Source text: as §2
Several animal models, including mouse, rat, dog, and monkey, may be used to screen for inhibition of beta-secretase activity in vivo following administration of a test compound sample. Animals used in this invention can be wild type, transgenic, or gene knockout animals. […] One to twenty-four hours following the administration of compound, animals are sacrificed, and brains as well as cerebrospinal fluid (CSF) and plasma are removed for analysis of A-beta levels and drug or test compound concentrations (Dovey et al., 2001, Journal of Neurochemistry, 76,173-181) Beginning at time 0, animals are administered by oral gavage, or other means of delivery such as intravenous injection, an inhibitory test compound of up to 100 mg/kg in a standard, conventional formulation, such as 2% hydroxypropyl methylcellulose, 1% Tween80. A separate group of animals receive 2% hydroxypropyl methylcellulose, 1% Tween80 alone, containing no test compound, and serve as a vehicle-control group. At the end of the test period, animals are sacrificed and brain tissues, plasma or cerebrospinal fluid are collected. […] Homogenates are centrifuged at 355,000 g, 4° C. for 30 minutes. CSF or brain supernatants are then analyzed for the presence of A-beta peptide by specific sandwich ELISA assays based on ECL (Electrochemiluminescence) technology. For example, rat Abeta40 is measured using biotinylated-4G8 (Signet) as a capture antibody and Fab40 (an in-house antibody specific to the C-terminal of Abeta40) as a detection antibody.
as §3

human recombinant BACE2 = human recombinant BACE2 (Homo sapiens (Human), UniProt Q9Y5Z0); experiment: In vitro enzymatic BACE2 FRET assay; format: biochemical; details: read-out: IC50 IP (μM) BACE2 enzyme
human recombinant BACE2, sequence (Q9Y5Z0 63-518): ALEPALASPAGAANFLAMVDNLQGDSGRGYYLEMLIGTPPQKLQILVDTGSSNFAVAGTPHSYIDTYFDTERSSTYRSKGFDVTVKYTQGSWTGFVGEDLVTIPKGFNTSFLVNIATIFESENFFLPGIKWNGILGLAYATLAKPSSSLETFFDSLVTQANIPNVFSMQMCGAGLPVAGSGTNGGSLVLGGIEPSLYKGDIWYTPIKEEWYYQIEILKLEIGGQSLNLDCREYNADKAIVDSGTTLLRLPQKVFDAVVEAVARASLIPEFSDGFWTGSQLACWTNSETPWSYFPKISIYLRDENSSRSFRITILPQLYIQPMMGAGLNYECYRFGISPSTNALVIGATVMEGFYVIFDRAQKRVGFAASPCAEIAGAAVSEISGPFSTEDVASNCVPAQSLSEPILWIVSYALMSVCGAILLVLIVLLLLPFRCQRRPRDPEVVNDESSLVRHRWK
Method in brief: as §1

human recombinant BACE1, sequence (P56817 46-501): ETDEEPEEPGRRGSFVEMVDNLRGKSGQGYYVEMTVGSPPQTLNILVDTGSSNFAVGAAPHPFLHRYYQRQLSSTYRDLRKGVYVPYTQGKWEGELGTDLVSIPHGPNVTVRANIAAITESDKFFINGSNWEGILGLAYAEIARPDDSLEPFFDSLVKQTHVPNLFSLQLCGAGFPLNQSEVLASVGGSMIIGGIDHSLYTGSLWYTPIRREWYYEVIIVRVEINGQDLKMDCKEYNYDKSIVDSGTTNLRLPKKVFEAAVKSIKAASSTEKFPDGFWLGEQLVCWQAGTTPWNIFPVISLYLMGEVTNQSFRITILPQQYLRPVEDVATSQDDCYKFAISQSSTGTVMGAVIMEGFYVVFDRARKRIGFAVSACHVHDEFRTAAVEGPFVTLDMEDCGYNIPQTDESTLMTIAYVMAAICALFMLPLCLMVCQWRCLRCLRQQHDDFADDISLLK

With `COc1cnc(C(=O)Nc2ccc(F)c([C@@]3(CF)N=C(N)S[C@H]4C[C@H]43)c2)cn1` [Example 4, N-(3-((1S,5S,6S)-3-amino-5-(fluoromethyl)-2-thia-4-azabicyclo[4.1.0]hept-3-en-5-yl)-4-fluorophenyl)-5-methoxy-2-pyrazinecarboxamide] the IC50 (human recombinant BACE1; BACE1 FRET enzyme assay) was 0.0696 µM, the IC50 ([1]; BACE1 cell-based assay) was 0.0164 µM and the IC50 (Recombinant Cat D; Cathepsin D FRET enzyme assay) was 1840 µM. For the same compound, the “% Aβ 40 reduction in rat CSF at 10 mpk” value (Aβ 40 in rat CSF) was 40% and the “% Aβ 40 reduction in rat brain at 10 mpk” value (Aβ 40 in rat brain) was 18%.

`C[C@]1(c2cc(NC(=O)c3ccc(Cl)cn3)cc(F)c2F)N=C(N)S[C@H]2C[C@H]21` [Example 6, N-(3-((1S,5S,6S)-3-amino-5-methyl-2-thia-4-azabicyclo[4.1.0]hept-3-en-5-yl)-4,5-difluorophenyl)-5-chloro-2-pyridinec arboxamide] was tested, and the “% Aβ 40 reduction in rat CSF at 10 mpk” value (Aβ 40 in rat CSF) was 78%.

For `C[C@]1(c2cc(NC(=O)c3ccc(Cl)cn3)cc(F)c2F)N=C(N)S[C@@]2(CF)C[C@H]21` [Example 12, N-(3-((1S,5S,6S)-3-amino-1-(fluoromethyl)-5-methyl-2-thia-4-azabicyclo[4.1.0]hept-3-en-5-yl)-4,5-difluorophenyl)-5-chloropicolinamide], the “% Aβ 40 reduction in rat CSF at 10 mpk” value (Aβ 40 in rat CSF) was 75%.

With `NC1=N[C@](CF)(c2cc(Nc3ncnc4cc(Cl)cnc34)ccc2F)[C@H]2C[C@@H]2S1` [Example 39, N-(3-((1S,5S,6S)-3-amino-5-(fluoromethyl)-2-thia-4-azabicyclo[4.1.0]hept-3-en-5-yl)-4-fluorophenyl)-7-chloropyrido[3,2-d]pyrimidin-amine] the IC50 ([1]; BACE1 cell-based assay) was 0.024 µM, the “% Aβ 40 reduction in rat CSF at 10 mpk” value (Aβ 40 in rat CSF) was 50% and the “% Aβ 40 reduction in rat brain at 10 mpk” value (Aβ 40 in rat brain) was 23%.

With `C#CCOc1cnc(C(=O)Nc2cc(F)c(F)c([C@@]3(C)N=C(N)S[C@@]4(COC)C[C@H]43)c2)cn1` [Example 72, N-(3-((1S,5S,6S)-3-amino-1-(methoxymethyl)-5-methyl-2-thia-4-azabicyclo[4.1.0]hept-3-en-5-yl)-4,5-difluorophenyl)-5-(2-propyn-1-yloxy)-2-pyrazinecarboxamide] the IC50 ([1]; BACE1 cell-based assay) was 0.00082 µM and the “% Aβ 40 reduction in rat CSF at 10 mpk” value (Aβ 40 in rat CSF) was 85%.

With `C#CCOc1cnc(C(=O)Nc2cc(F)c(F)c([C@@]3(C)N=C(N)S[C@@]4(C(F)F)C[C@@H]34)c2)cn1` [Example 807, N-(3-((1S,5S,6S)-3-amino-1-(difluoromethyl)-5-methyl-2-thia-4-azabicyclo[4.1.0]hept-3-en-5-yl)-4,5-difluorophenyl)-5-(2-propyn-1-yloxy)-2-pyrazinecarboxamide] the “% Aβ 40 reduction in rat CSF (3 mpk)” value (Aβ 40 in rat CSF) was 80 (3 mpk) %.

For `C#CCOc1cnc(C(=O)Nc2cc(F)c(F)c([C@@]3(C)N=C(N)S[C@@]4(CF)C[C@H]43)c2)cn1` [Example 810, N-(3-((1S,5S,6S)-3-amino-1-(fluoromethyl)-5-methyl-2-thia-4-azabicyclo[4.1.0]hept-3-en-5-yl)-4,5-difluorophenyl)-5-(prop-2-yn-1-yloxy)pyrazine-2-carboxamide], the “% Aβ 40 reduction in rat CSF (3 mpk)” value (Aβ 40 in rat CSF) was 79 (3 mpk) % and the “% Aβ 40 reduction in rat brain (3 mpk)” value (Aβ 40 in rat brain) was 74 (3 mpk) %.

With `COC[C@]12C[C@H]1[C@@](C)(c1cc(NC(=O)c3cnc(OCC(F)(F)F)cn3)cc(F)c1F)N=C(N)S2` [Example 815, N-(3-((1S,5S,6S)-3-amino-1-(methoxymethyl)-5-methyl-2-thia-4-azabicyclo[4.1.0]hept-3-en-5-yl)-4,5-difluorophenyl)-5-(2,2,2-trifluoroethoxy)-2-pyrazinecarboxamide] the “% Aβ 40 reduction in rat CSF at 10 mpk” value (Aβ 40 in rat CSF) was 50%.

`[2H]C([2H])([2H])OC[C@]12C[C@H]1[C@@](C)(c1cc(NC(=O)c3cnc(OCC#C)cn3)cc(F)c1F)N=C(N)S2` [Example 969, N-(3-((1S,5S,6S)-3-amino-5-methyl-1-(((trideuterium)methyloxy)methyl)-2-thia-4-azabicyclo[4.1.0]hept-3-en-5-yl)-4,5-difluorophenyl)-5-(2-propyn-1-yloxy)-2-pyrazinecarboxamide] was tested, and the IC50 [1] was 0.000687 µM, the “% Aβ 40 reduction in rat CSF (3 mpk)” value (Aβ 40 in rat CSF) was 79 (3 mpk) % and the “% Aβ 40 reduction in rat brain (3 mpk)” value (Aβ 40 in rat brain) was 79 (3 mpk) %.

`C#CCOc1cnc(C(=O)Nc2cc(C)c(F)c([C@@]3(C)N=C(N)S[C@@]4(C(F)F)C[C@@H]34)c2)cn1` [Example 1072, N-(3-((1S,5S,6S)-3-amino-1-(difluoromethyl)-5-methyl-2-thia-4-azabicyclo[4.1.0]hept-3-en-5-yl)-4-fluoro-5-methylphenyl)-5-(prop-2-yn-1-yloxy)pyrazine-2-carboxamide] gave an IC50 (human recombinant BACE1) of 0.00032 µM, an IC50 (human recombinant BACE2) of 0.00983 µM and an IC50 [1] of 0.000345 µM. For the same compound, the IC50 (Recombinant Cat D) was 143 µM.

For `Cc1cc(NC(=O)c2cnc(OCC(F)(F)F)cn2)cc([C@@]2(C)N=C(N)S[C@@]3(C(F)F)C[C@@H]23)c1F` [Example 1073, N-(3-((1S,5S,6S)-3-amino-1-(difluoromethyl)-5-methyl-2-thia-4-azabicyclo[4.1.0]hept-3-en-5-yl)-4-fluoro-5-methylphenyl)-5-(2,2,2-trifluoroethoxy)pyrazine-2-carboxamide], the IC50 (human recombinant BACE1) was 0.000842 µM, the IC50 (human recombinant BACE2) was 0.0515 µM and the IC50 [1] was 0.00323 µM. It also gave an IC50 (Recombinant Cat D) of 1300 µM.

In the case of `Cc1cc(NC(=O)c2cnc(OCc3ncco3)cn2)cc([C@@]2(C)N=C(N)S[C@@]3(C(F)F)C[C@@H]23)c1F` [Example 1074, N-(3-((1S,5S,6S)-3-amino-1-(difluoromethyl)-5-methyl-2-thia-4-azabicyclo[4.1.0]hept-3-en-5-yl)-4-fluoro-5-methylphenyl)-5-(oxazol-2-ylmethoxy)pyrazine-2-carboxamide], the IC50 (human recombinant BACE1) is reported as 0.00057 µM, the IC50 (human recombinant BACE2) is reported as 0.0167 µM and the IC50 [1] is reported as 0.000489 µM. It also gave an IC50 (Recombinant Cat D) of 1330 µM.

`Cc1noc(COc2cnc(C(=O)Nc3cc(C)c(F)c([C@@]4(C)N=C(N)S[C@@]5(C(F)F)C[C@@H]45)c3)cn2)n1` [Example 1075, N-(3-((1S,5S,6S)-3-amino-1-(difluoromethyl)-5-methyl-2-thia-4-azabicyclo[4.1.0]hept-3-en-5-yl)-4-fluoro-5-methylphenyl)-5-((3-methyl-1,2,4-oxadiazol-5-yl)methoxy)pyrazine-2-carboxamide] showed an IC50 (human recombinant BACE1) of 0.00152 µM, an IC50 (human recombinant BACE2) of 0.198 µM and an IC50 [1] of 0.00153 µM. It also gave an IC50 (Recombinant Cat D) of 1250 µM.
